Each compound was assayed on BJAB cells (assay: BJAB cell proliferation (Cell Titer Glo)). Details: Homo sapiens, read-out: EC50.
Assay type: cell-based
Method in brief: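 EC50 values come from non-linear regression of luminescence (Cell Titer Glo), expressed relative to untreated wells. BJAB cells were incubated roughly 72 h at 37 °C with serial compound dilutions carrying 0.1% final DMSO.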

First: Cc1cc(-c2c(C)nn(-c3nc(-c4ccc(Cl)c(Cl)c4)c(SC(C)C)s3)c2C(=O)O)cc(O[C@H]2CCOC2)n1 [Compound 182, (S)-1-(4-(3,4-dichlorophenyl)-5-(isopropylthio)thiazol-2-yl)-3-methyl-4-(2-methyl-6-((tetrahydrofuran-3-yl)oxy)pyridin-4-yl)-1H-pyrazole-5-carboxylic acid]
Second: COc1cc(-c2c(C)nn(-c3nc(-c4ccc(Cl)c(Cl)c4)c(SC(C)C)s3)c2C(=O)O)cc(C)n1 [Compound 199, 1-(4-(3,4-dichlorophenyl)-5-(isopropylthio)thiazol-2-yl)-4-(2-methoxy-6-methylpyridin-4-yl)-3-methyl-1H-pyrazole-5-carboxylic Acid]
The EC50 of the first is higher: 10 to 25 µM for the first, 1 to 5 µM for the second.

First: Cc1nn(-c2nc(C3=CCCCC3)c(SC(C)C)s2)c(C(=O)O)c1-c1cccc(F)c1 [Compound 183, 1-(4-(cyclohex-1-en-1-yl)-5-(isopropylthio)thiazol-2-yl)-4-(3-fluorophenyl)-3-methyl-1H-pyrazole-5-carboxylic Acid]
Second: Cc1nn(-c2nc(C3=CCCC3)c(SC(C)C)s2)c(C(=O)O)c1-c1cccc(F)c1 [Compound 184, 1-(4-(cyclopent-1-en-1-yl)-5-(isopropylthio)thiazol-2-yl)-4-(3-fluorophenyl)-3-methyl-1H-pyrazole-5-carboxylic acid]
The EC50 of the first is lower: 5 to 10 µM for the first, 10 to 25 µM for the second. The first is the more potent here.

`COc1cc(Cl)cc(-c2c(C)nn(-c3nc(-c4ccccc4)c(SC(C)C)s3)c2C(=O)O)c1` [Compound 185, 4-(3-chloro-5-methoxyphenyl)-1-(5-(isopropylthio)-4-phenylthiazol-2-yl)-3-methyl-1H-pyrazole-5-carboxylic Acid] and `Cc1nn(-c2nc(-c3ccccc3)c(SC(C)C)s2)c(C(=O)O)c1-c1cccc(F)c1` [Compound 202, 4-(3-fluorophenyl)-1-(5-(isopropylthio)-4-phenylthiazol-2-yl)-3-methyl-1H-pyrazole-5-carboxylic acid] fall in the same range of EC50: 10 to 25 µM for the first, 10 to 25 µM for the second.

Compared with `Cc1nn(-c2nc(-c3ccc(F)cc3)c(SC(C)C)s2)c(C(=O)O)c1-c1cccc(F)c1` [Compound 186, 4-(3-fluorophenyl)-1-(4-(4-fluorophenyl)-5-(isopropylthio)thiazol-2-yl)-3-methyl-1H-pyrazole-5-carboxylic Acid], `COc1ccc(-c2nc(-n3nc(C)c(-c4cccc(F)c4)c3C(=O)O)sc2SC(C)C)cc1` [Compound 187, 4-(3-fluorophenyl)-1-(5-(isopropylthio)-4-(4-methoxyphenyl)thiazol-2-yl)-3-methyl-1H-pyrazole-5-carboxylic Acid] is higher in EC50: 1 to 5 µM for the first, 10 to 25 µM for the second. The first is the more potent here.

Compared with `Cc1nn(-c2nc(-c3ccc(S(C)(=O)=O)cc3)c(SC(C)C)s2)c(C(=O)O)c1-c1cccc(F)c1` [Compound 188, 4-(3-fluorophenyl)-1-(5-(isopropylthio)-4-(4-(methylsulfonyl)phenyl)thiazol-2-yl)-3-methyl-1H-pyrazole-5-carboxylic Acid], `Cc1nn(-c2nc(-c3ccc(C(F)(F)F)cc3)c(SC(C)C)s2)c(C(=O)O)c1-c1cccc(F)c1` [Compound 197, 4-(3-fluorophenyl)-1-(5-(isopropylthio)-4-(4-(trifluoromethyl)phenyl)thiazol-2-yl)-3-methyl-1H-pyrazole-5-carboxylic Acid] is lower in EC50: greater than 40 µM for the first, less than 1 µM for the second.

First: COc1cc(-c2nc(-n3nc(C)c(-c4cccc(F)c4)c3C(=O)O)sc2SC(C)C)ccc1F [Compound 189, 1-(4-(4-fluoro-3-methoxyphenyl)-5-(isopropylthio)thiazol-2-yl)-4-(3-fluorophenyl)-3-methyl-1H-pyrazole-5-carboxylic Acid]
Second: COc1cc(-c2nc(-n3nc(C)c(-c4cccc(F)c4)c3C(=O)O)sc2SC(C)C)ccc1Cl [Compound 195, 1-(4-(4-chloro-3-methoxyphenyl)-5-(isopropylthio)thiazol-2-yl)-4-(3-fluorophenyl)-3-methyl-1H-pyrazole-5-carboxylic Acid]
The EC50 of the first is higher: 10 to 25 µM for the first, 5 to 10 µM for the second.

`Cc1cc(-c2c(C)nn(-c3nc(-c4ccc(Cl)c(C)c4)c(SC(C)C)s3)c2C(=O)O)cc(C)n1` [Compound 190, 1-(4-(4-chloro-3-methylphenyl)-5-(isopropylthio)thiazol-2-yl)-4-(2,6-dimethylpyridin-4-yl)-3-methyl-1H-pyrazole-5-carboxylic Acid] and `COc1cc(-c2nc(-n3nc(C)c(-c4cc(C)nc(C)c4)c3C(=O)O)sc2SC(C)C)ccc1Cl` [Compound 194, 1-(4-(4-chloro-3-methoxyphenyl)-5-(isopropylthio)thiazol-2-yl)-4-(2,6-dimethylpyridin-4-yl)-3-methyl-1H-pyrazole-5-carboxylic Acid] fall in the same range of EC50: 1 to 5 µM for the first, 1 to 5 µM for the second.

First: Cc1cc(-c2nc(-n3nc(C)c(-c4cccc(F)c4)c3C(=O)O)sc2SC(C)C)ccc1Cl [Compound 191, 1-(4-(4-chloro-3-methylphenyl)-5-(isopropylthio)thiazol-2-yl)-4-(3-fluorophenyl)-3-methyl-1H-pyrazole-5-carboxylic Acid]
Second: Cc1nn(-c2nc(-c3cccc(F)c3)c(SC(C)C)s2)c(C(=O)O)c1-c1cccc(F)c1 [Compound 201a]
The EC50 of the first is lower: 1 to 5 µM for the first, 25 to 50 µM for the second.

`Cc1cc(-c2c(C)nn(-c3nc(-c4cc(F)c(Cl)c(F)c4)c(SC(C)C)s3)c2C(=O)O)cc(C)n1` [Compound 192, 1-(4-(4-chloro-3,5-difluorophenyl)-5-(isopropylthio)thiazol-2-yl)-4-(2,6-dimethylpyridin-4-yl)-3-methyl-1H-pyrazole-5-carboxylic Acid] and `Cc1nn(-c2nc(-c3cc(F)c(Cl)c(F)c3)c(SC(C)C)s2)c(C(=O)O)c1-c1cccc(F)c1` [Compound 193, 1-(4-(4-chloro-3,5-difluorophenyl)-5-(isopropylthio)thiazol-2-yl)-4-(3-fluorophenyl)-3-methyl-1H-pyrazole-5-carboxylic Acid] fall in the same range of EC50: 1 to 5 µM for the first, 1 to 5 µM for the second.

`Cc1cc(-c2c(C)nn(-c3nc(-c4ccc(C(F)(F)F)cc4)c(SC(C)C)s3)c2C(=O)O)cc(C)n1` [Compound 196, 4-(2,6-dimethylpyridin-4-yl)-1-(5-(isopropylthio)-4-(4-(trifluoromethyl)phenyl)thiazol-2-yl)-3-methyl-1H-pyrazole-5-carboxylic Acid] and `Cc1cc(-c2c(C)nn(-c3nc(-c4ccc(F)cc4)c(SC(C)C)s3)c2C(=O)O)cc(C)n1` [Compound 204, 4-(2,6-dimethylpyridin-4-yl)-1-(4-(4-fluorophenyl)-5-(isopropylthio)thiazol-2-yl)-3-methyl-1H-pyrazole-5-carboxylic acid] fall in the same range of EC50: 1 to 5 µM for the first, 1 to 5 µM for the second.

Compared with `Cc1nn(-c2nc(-c3ccc(Cl)c(Cl)c3)c(SC(C)C)s2)c(C(=O)O)c1-c1cc(F)cc(OC2COC2)c1` [Compound 200, 1-(4-(3,4-dichlorophenyl)-5-(isopropylthio)thiazol-2-yl)-4-(3-fluoro-5-(oxetan-3-yloxy)phenyl)-3-methyl-1H-pyrazole-5-carboxylic Acid], `Cc1nn(-c2nc(-c3cc4ccccc4o3)c(SC(C)C)s2)c(C(=O)O)c1-c1cccc(F)c1` [Compound 201b] is higher in EC50: 1 to 5 µM for the first, 10 to 25 µM for the second. The first is the more potent here.

In the case of `Cc1nn(-c2nc(-c3ccccc3)c(SC(C)C)s2)c(C(=O)O)c1-c1cnn(C)c1` [Compound 203, 1-(5-(isopropylthio)-4-phenylthiazol-2-yl)-1′,3-dimethyl-1H,1′H-[4,4′-bipyrazole]-5-carboxylic acid], the EC50 is reported as greater than 40 µM.

Source: US10537558B2 (Bantam Pharmaceutical, LLC, priority 2015, dated 2020)
